In patent US7531558B2, “Carboxamide derivatives” (Glaxo Group Limited, priority 2003, dated 2009):

What follows are molecules tested on FCA-induced mechanical hyperalgesia (assay: FCA-induced hyperalgesia in the guinea pig (paw pressure, Randall-Sellito)). Conditions: male Dunkin Hartley guinea-pigs; oral 3, 10, 30 mg/kg 24 h after intraplantar FCA; reading 1 hour after drug administration.
Type: in vivo
Method: 100 μl of 1 mg/ml FCA was injected intraplantar into the left paw of 4 groups of 8 male Dunkin Hartley guinea-pigs (batch: 6282434, average weight 340 g). 24 hours later compounds were administered orally at 0 (vehicle), 3, 10 30 mg/kg with vehicle as 1% methylcellulose and dosing volume being 2 ml/kg and dosing straight into the stomach. The methylcellulose was added gradually to the compound into the pestle and mortar and ground together.
Behavioural readouts of mechanical hyperalgesia were obtained before FCA administration (naïve reading), after FCA but before drug administration (predose reading) and 1 hour after drug administration. The readout used was paw pressure (Randall-Sellito) and the end point was paw withdrawal. The paw pressure equipment also had one silver disc placed on the point to increase the markings by a factor of 2.

SMILES	activity in FCA-induced mechanical hyperalgesia (paw withdrawal)
Cc1nc2cc(NC(=O)c3ccc(-c4ccc(F)cc4)nc3C)ccc2s1 [Example 1, 6-(4-Fluorophenyl)-2-methyl-N-(2-methylbenzothiazol-5-yl)nicotinamide]	active
Cc1nc2cc(NC(=O)c3ccc(-c4ccc(F)cc4F)nc3C)ccc2s1 [Example 2, 6-(2,4-Difluorophenyl)-2-methyl-N-(2-methylbenzothiazol-5-yl)-nicotinamide]	active
Cc1nc2cc(NC(=O)c3ccc(-c4ccc(F)c(F)c4)nc3C)ccc2s1 [Example 3, 6-(3,4-Difluorophenyl)-2-methyl-N-(2-methylbenzothiazol-5-yl)-nicotinamide]	active
Cc1nc(-c2ccc(F)cc2)ccc1C(=O)Nc1ccc2scnc2c1 [Example 4, N-Benzothiazol-5-yl-6-(4-fluorophenyl)-2-methyl-nicotinamide]	active
Cc1nc2cc(NC(=O)c3ccc(-c4cccc(F)c4F)nc3C)ccc2s1 [Example 5, 6-(2,3-Difluorophenyl)-2-methyl-N-(2-methylbenzothiazol-5-yl)-nicotinamide]	active
Cc1nc2cc(NC(=O)N3CCN(c4ccccc4F)CC3)ccc2s1 [Example 16, 4-(2-Fluorophenyl)-N-(2-methylbenzothiazol-5-yl)-1-piperazine carboxamide]	active
